pIC50: −log10 of the molar value.

In the assay the target is T1, Chymase purified form human skin mast cells (Homo sapiens, UniProt P23946).
T1 construct: Chymase purified form human skin mast cells was obtained from Calbiochem; purchased Calbiochem (Merck Biosciences, San Diego, Calif., USA); host or cells: human skin mast cells (natural source)
T1 sequence (P23946 22-247): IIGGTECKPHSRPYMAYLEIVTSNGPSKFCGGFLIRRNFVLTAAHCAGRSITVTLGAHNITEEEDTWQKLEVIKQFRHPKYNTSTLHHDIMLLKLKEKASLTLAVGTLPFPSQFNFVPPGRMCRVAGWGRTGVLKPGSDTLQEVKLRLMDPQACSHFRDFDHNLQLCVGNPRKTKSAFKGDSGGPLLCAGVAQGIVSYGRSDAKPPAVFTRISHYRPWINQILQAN
Nature of the assay: chymase peptide substrate (AAPF-AMC) fluorescence assay. It is filed as biochemical. The following applies: 0.02 mM AAPF-substrate, 0.1 nM Chymase, pH 7.4, room temperature, 30 min pre-incubation. The method, then: The peptide was synthesized with a purity of 95% from Bachem, Bubendorf, Switzerland). Chymase purified form human skin mast cells was obtained from Calbiochem (Merck Biosciences, San Diego, Calif., USA). The assay buffer was 0.15 M NaCl, 0.05M, Tris HCl, 0.05% CHAPS (3-[(3-Cholamidopropyl)-dimethylammonio]-1-propane sulphonate), 0.1 mg/ml Heparin (Heparin sodium, Sigma, porcine intestinal mucosa), 0.02 mM AAPF-substrate, 0.1 nM Chymase at pH 7.4. The assay was performed in 96-well plates (Packard Optiplate), with a 0.05 ml volume at room temperature. Chymase activity was indicated by the initial rate of increase in fluorescence at 340/440 nm (excitation/emission) from free 7-amino-4-methylcoumarin released from the substrate. Inhibition of the activity by inhibitory compounds was read after 30 min pre-incubation with the chymase at room temperature in assay buffer without AAPF-substrate. The assay was then started by addition of the indicated concentration of AAPF-substrate.
Broadly, the pIC50 is the negative decadic logarithm of the IC50, by convention in mol/L. Compound `O=C(O)c1cc2ccccc2n1Cc1csc2ccc(F)cc12` [Example 55, 1-(5-Fluoro-benzo[b]thiophen-3-ylmethyl)-1H-indole-2-carboxylic acid] showed a pIC50 of 7.52. As to `COC(=O)N(C)Cc1c(C(=O)O)n(Cc2cccc3ccc(F)cc23)c2ccccc12` [Example 106, 1-(7-Fluoro-naphthalen-1-ylmethyl)-3-[(methoxycarbonyl-methyl-amino)-methyl]-1H-indole-2-carboxylic acid], the pIC50 is 9.70. Compared with the last compound, the pIC50 is 2.18 log units higher. `CS(=O)(=O)NCc1c(C(=O)O)n(Cc2cccc3ccc(F)cc23)c2ccccc12` [Example 105, 1-(7-Fluoro-naphthalen-1-ylmethyl)-3-(methanesulfonylamino-methyl)-1H-indole-2-carboxylic acid] showed a pIC50 of 9.10. Against the preceding compound, the pIC50 is 0.60 log units lower.

Consider `O=C(O)Cc1c(C(=O)O)n(Cc2cccc3ccccc23)c2ccccc12` [Example 5, 3-Carboxymethyl-1-naphthalen-1-ylmethyl-1H-indole-2-carboxylic acid], for which the pIC50 is 7.43. Against the preceding compound, the pIC50 is 1.67 log units lower. In turn, `O=C(O)c1cc2ccccc2n1Cc1cccc2ccc(F)cc12` [Example 49, 1-(7-Fluoro-naphthalen-1-ylmethyl)-1H-indole-2-carboxylic acid] had a negative-log IC50 (pIC50) of 7.77. This pIC50 lies 0.34 log units higher than the previous one. Regarding `Cc1ccc(C(=O)NCc2c(C(=O)O)n(Cc3cccc4ccccc34)c3ccccc23)cc1` [Example 10, 3-[(4-Methyl-benzoylamino)-methyl]-1-naphthalen-1-ylmethyl-1H-indole-2-carboxylic acid], the pIC50 was 7.42. Compared with the last compound, the pIC50 is 0.35 log units lower. `COC(=O)N(C)Cc1c(C(=O)O)n(Cc2csc3ccc(F)cc23)c2ccccc12` [Example 117, 1-(5-Fluoro-benzo[b]thiophen-3-ylmethyl)-3-[(methoxycarbonyl-methyl-amino)-methyl]-1H-indole-2-carboxylic acid]: the pIC50 is 9.00. Compared with the last compound, the pIC50 is 1.58 log units higher.

For the origin of these results see patent US7696240B2, “Fused pyrrole derivatives” (Hoffmann-La Roche Inc., priority 2005, dated 2010).
